Test results: ChEMBL document CHEMBL3885861, “Open TG-GATES”

Species: Rattus norvegicus
Experiment: Open TG-GATES - Regimen: Daily Repeat
Type: toxicity, organism-based, Sprague-Dawley
Set-up: regimen Daily Repeat, gender Male, age 6 weeks
Settings: in vivo, po, 60 mg/kg, route gavage, dose level Low; for APTT / Bas / Eos / Fbg / Hb / Ht / Lym / MCH / MCHC / MCV / Mono / Neu / PT / Plat / RBC / Ret / WBC: tissue Blood
[1] = 72 h, tissue Kidney, time 3 day
[2] = 72 h, tissue Plasma, time 3 day

**Q.** Which results are given for `C[C@](N)(Cc1ccc(O)c(O)c1)C(=O)O` [METHYLDOPA]?
**A.** TERMINAL_BW (72 h, time 3 day): 205.8 g; APTT (72 h, time 3 day): 17.3 s; Bas (72 h, time 3 day): 0%; Eos (72 h, time 3 day): 1%; Fbg (72 h, time 3 day): 249 mg/dL; Hb (72 h, time 3 day): 13.5 g/dL; Ht (72 h, time 3 day): 39.1%; Lym (72 h, time 3 day): 77.8%; MCH (72 h, time 3 day): 21.6 pg; MCHC (72 h, time 3 day): 34.4%; MCV (72 h, time 3 day): 62.9 fL; Mono (72 h, time 3 day): 2.8%; Neu (72 h, time 3 day): 17.8%; PT (72 h, time 3 day): 12.6 s; Plat (72 h, time 3 day): 102.6 x10_4/uL; RBC (72 h, time 3 day): 623.2 x10_4/ul; Ret (72 h, time 3 day): 7.7%; WBC (72 h, time 3 day): 71 x10_2/uL; KIDNEY_L [1]: 0.9 g; KIDNEY_R [1]: 0.9 g; KIDNEY_TOTAL [1]: 1.8 g; LIVER (72 h, tissue Liver, time 3 day): 8.9 g; A/G [2]: 0.9; ALP [2]: 1905.6 IU/L; ALT [2]: 60.6 IU/L; AST [2]: 79.2 IU/L; BUN [2]: 13.6 mg/dL; CRE [2]: 0.2 mg/dL; Ca [2]: 11.1 mg/dL; Cl [2]: 106.8 meq/L; DBIL [2]: 0.01 mg/dL; GLC [2]: 172.6 mg/dL; IP [2]: 7.4 mg/dL; K [2]: 4 meq/L; LDH [2]: 59.2 IU/L; Na [2]: 144 meq/L; PL [2]: 130 mg/dL; RALB [2]: 2.6 g/dL; TBIL [2]: 0.064 mg/dL; TC [2]: 76.8 mg/dL; TG [2]: 51.8 mg/dL; TP [2]: 5.4 g/dL; gamma-GTP [2]: 1 IU/L; TERMINAL_BW ([…], time 7 day): 237.3 g; TERMINAL_BW ([…], time 14 day): 281.9 g; TERMINAL_BW ([…], time 28 day): 389.2 g; APTT ([…], time 7 day): 16.2 s; Bas ([…], time 7 day): 0%; Eos ([…], time 7 day): 1%; Fbg ([…], time 7 day): 269.2 mg/dL; Hb ([…], time 7 day): 13.7 g/dL; Ht ([…], time 7 day): 39.9%; Lym ([…], time 7 day): 77.8%; MCH ([…], time 7 day): 21.8 pg; MCHC ([…], time 7 day): 34.3%; MCV ([…], time 7 day): 63.4 fL; Mono ([…], time 7 day): 3.2%; Neu ([…], time 7 day): 17.6%; PT ([…], time 7 day): 12.1 s; Plat ([…], time 7 day): 124.4 x10_4/uL; RBC ([…], time 7 day): 629 x10_4/ul; Ret ([…], time 7 day): 5.2%; WBC ([…], time 7 day): 68.8 x10_2/uL; APTT ([…], time 14 day): 16.9 s; Bas ([…], time 14 day): 0%; Eos ([…], time 14 day): 1%; Fbg ([…], time 14 day): 302.6 mg/dL; Hb ([…], time 14 day): 13.8 g/dL; Ht ([…], time 14 day): 39.6%; Lym ([…], time 14 day): 80.6%; MCH ([…], time 14 day): 20.5 pg; MCHC ([…], time 14 day): 34.9%; MCV ([…], time 14 day): 59 fL; Mono ([…], time 14 day): 2.6%; Neu ([…], time 14 day): 15.4%; PT ([…], time 14 day): 14 s; Plat ([…], time 14 day): 109.7 x10_4/uL; RBC ([…], time 14 day): 672.8 x10_4/ul; Ret ([…], time 14 day): 4.4%; WBC ([…], time 14 day): 64.6 x10_2/uL; APTT ([…], time 28 day): 18.8 s; Bas ([…], time 28 day): 0%; Eos ([…], time 28 day): 1.2%; Fbg ([…], time 28 day): 289 mg/dL; Hb ([…], time 28 day): 15 g/dL; Ht ([…], time 28 day): 42.9%
